Data set [1] has as its system MDA-MB-231 breast cancer cell line. In words: MTT cancer cell antiproliferative assay, MDA-MB-231. As to conditions: 24 h treatment. Type of data set: cell-based, human. How it is done: (§1) The newly synthesized compounds 4a–e, 6a–c and 9a–d were evaluated for their in vitro anticancer activity against two breast cancer cell lines; Michigan cancer foundation-7 (MCF-7) and M.D. Anderson metastasis breast cancer-231 (MDA-MB-231) according to (3-(4,5-dimethylthiazole-2-yl)-2,5-diphenyltetrazolium bromide) tetrazolium (MTT) assay method by using erlotinib as positive tyrosine kinase (TK) drug.
(§2) The in vitro anticancer activities of the target compounds against two breast cancer cell lines; luminal human breast adenocarcinoma (estrogen-receptor (ER) and progesterone-receptor (PR)) positive MCF-7 and negative human breast cancer (MDA-MB-231) cell lines were evaluated as described with some modifications. Cell line cells were obtained from American Type Culture Collection, cells was cultured using DMEM (Invitrogen Life Technologies, Waltham, MA, USA) supplemented with 10% FBS (Hyclone, Logan, UT, USA), 10 µg/mL of insulin (Sigma, St. Louis, MO, USA), and 1% penicillin-streptomycin. All of the other chemical sand reagents were from (Sigma, St. Louis, MO, USA). The cells […] were sub-cultured into a 96-well plate with […] per well in medium, at 37 °C, 5% CO2 and 95% air atmosphere, before being treated with or without various concentrations of test compounds, each in triplicate for 24 h. At the end of the incubation, the cells were harvested and washed with PBS. 20 µL of MTT was added to each well and incubated for 2 h before 200 µL DMSO was added. The absorbance was measured on an ELISA reader (Multiskan EX, Lab systems, Waltham, MA, USA) at a test wavelength of 570 nm.

The subject of data set [2] is MCF-7 breast cancer cell line. In words: MTT cancer cell antiproliferative assay, MCF-7. Type of data set: cell-based. As to conditions: Homo sapiens, MCF7, 24 h treatment. As for the experimental part:
as §1, §2

The subject of the next data set is MDA-MB-231 cells. In words: Annexin V-FITC apoptosis analysis. Type of data set: cell-based, human. As to conditions: IC50 concentration, 48 h. An excerpt: Apoptosis induction was examined in treated MDA-MB-231 cells by use of an Annexin V-fluorescine isothiocyanate (FITC) (Abcam, Milton, Cambridge, UK). The treatment of the cells with target compound (6c) and erlotinib drug with antiproliferative detected concentrations have been applied for comparison. […] The apoptosis-inducing effect of target compound was investigated by flow cytometric analysis of MDA-MB-231 cells stained with Annexin V and propidium iodide. […] This might be extra behavior interpreting the potent cytotoxic effect of such compounds.
This analysis was performed following the reported procedures.

In data set [3] the target is tubulin polymerization (Tubulin Beta, Tubb) (Homo sapiens, UniProt P07437+P68363). In words: Tubulin polymerization inhibition (ELISA for Tubulin Beta). Type of data set: biochemical. An excerpt:
Microtubule-targeting agents affect microtubule function and stop mitosis, resulting in necrosis and apoptosis and eventually cell death.
This assay was done according to reported procedures
(In general: ELISA stands for enzyme-linked immunosorbent assay.)

The target of data set [4] is T1, epidermal growth factor receptor (EGFR) tyrosine kinase (TK) (Homo sapiens, UniProt P00533).
T1 construct: purchased Cell Signaling Technology
In words: EGFR TK inhibition assay (HT Scan EGFR kinase assay kit). Type of data set: biochemical. As to conditions: GST-EGFR protein, 400 μM ATP. As for the experimental part:
The compound (4b) bears flexible benzylamine terminal moiety, while the (6a) and (6c) derivatives bear sulphonamide moieties and 9a–b with Schiff fragments.
EGFR kinase activity was measured by HT Scan EGFR kinase assay kits (Cell Signaling Technology, Danvers, MA, USA). The experiments were done following the manufacturer’s directions. […] Strapavidin-coated 96-well plates was used to take phosphorylated substrate. Anti-phosphotyrosine and europium-labeled secondary antibodies (DELFIA, Perkin-Elmer, Akron, OH, USA) was used to monitor the level of phosphorylation. At the end of the assay, the enrichment solution was added and enzyme activity was assessed in the Wallac Victor II 1420 micro-plate reader (Abcam, Milton, Cambridge, UK) and […].

The term IC50 denotes the concentration that inhibits the measured activity by half. Lower therefore signals higher potency. By melting point is commonly meant the temperature, or range, at which the solid turns liquid.

Where “and” joins values, the source holds several entries; their conditions need not be identical. Equal entries are not always repeated.

Chain of tubulin polymerization (Tubulin Beta, Tubb) (P07437 whole entry): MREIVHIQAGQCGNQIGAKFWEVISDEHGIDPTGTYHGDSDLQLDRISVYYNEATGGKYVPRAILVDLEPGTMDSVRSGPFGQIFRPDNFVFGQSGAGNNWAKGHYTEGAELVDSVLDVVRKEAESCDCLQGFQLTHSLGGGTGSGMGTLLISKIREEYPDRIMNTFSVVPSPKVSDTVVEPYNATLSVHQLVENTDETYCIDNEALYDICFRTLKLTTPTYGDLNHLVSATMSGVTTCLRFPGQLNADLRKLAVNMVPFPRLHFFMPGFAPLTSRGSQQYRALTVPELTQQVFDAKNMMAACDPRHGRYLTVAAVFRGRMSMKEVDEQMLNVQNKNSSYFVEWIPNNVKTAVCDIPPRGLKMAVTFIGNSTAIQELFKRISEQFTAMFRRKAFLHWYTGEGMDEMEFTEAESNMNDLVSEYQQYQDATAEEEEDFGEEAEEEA
Chain of tubulin polymerization (Tubulin Beta, Tubb) (P68363 whole entry): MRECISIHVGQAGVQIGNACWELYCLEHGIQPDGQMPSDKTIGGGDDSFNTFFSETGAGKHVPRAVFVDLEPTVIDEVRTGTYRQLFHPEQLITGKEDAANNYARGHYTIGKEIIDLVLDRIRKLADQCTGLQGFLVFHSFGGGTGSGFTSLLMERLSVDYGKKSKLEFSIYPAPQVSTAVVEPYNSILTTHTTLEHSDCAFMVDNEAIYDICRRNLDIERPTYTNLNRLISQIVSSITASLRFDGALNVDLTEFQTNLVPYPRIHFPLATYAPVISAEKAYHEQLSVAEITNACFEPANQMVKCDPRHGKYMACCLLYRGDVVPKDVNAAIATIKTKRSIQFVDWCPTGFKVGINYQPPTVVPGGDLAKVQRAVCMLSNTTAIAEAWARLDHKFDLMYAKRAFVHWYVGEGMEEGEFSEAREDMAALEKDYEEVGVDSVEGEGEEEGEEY
T1 sequence (P00533 25-1210): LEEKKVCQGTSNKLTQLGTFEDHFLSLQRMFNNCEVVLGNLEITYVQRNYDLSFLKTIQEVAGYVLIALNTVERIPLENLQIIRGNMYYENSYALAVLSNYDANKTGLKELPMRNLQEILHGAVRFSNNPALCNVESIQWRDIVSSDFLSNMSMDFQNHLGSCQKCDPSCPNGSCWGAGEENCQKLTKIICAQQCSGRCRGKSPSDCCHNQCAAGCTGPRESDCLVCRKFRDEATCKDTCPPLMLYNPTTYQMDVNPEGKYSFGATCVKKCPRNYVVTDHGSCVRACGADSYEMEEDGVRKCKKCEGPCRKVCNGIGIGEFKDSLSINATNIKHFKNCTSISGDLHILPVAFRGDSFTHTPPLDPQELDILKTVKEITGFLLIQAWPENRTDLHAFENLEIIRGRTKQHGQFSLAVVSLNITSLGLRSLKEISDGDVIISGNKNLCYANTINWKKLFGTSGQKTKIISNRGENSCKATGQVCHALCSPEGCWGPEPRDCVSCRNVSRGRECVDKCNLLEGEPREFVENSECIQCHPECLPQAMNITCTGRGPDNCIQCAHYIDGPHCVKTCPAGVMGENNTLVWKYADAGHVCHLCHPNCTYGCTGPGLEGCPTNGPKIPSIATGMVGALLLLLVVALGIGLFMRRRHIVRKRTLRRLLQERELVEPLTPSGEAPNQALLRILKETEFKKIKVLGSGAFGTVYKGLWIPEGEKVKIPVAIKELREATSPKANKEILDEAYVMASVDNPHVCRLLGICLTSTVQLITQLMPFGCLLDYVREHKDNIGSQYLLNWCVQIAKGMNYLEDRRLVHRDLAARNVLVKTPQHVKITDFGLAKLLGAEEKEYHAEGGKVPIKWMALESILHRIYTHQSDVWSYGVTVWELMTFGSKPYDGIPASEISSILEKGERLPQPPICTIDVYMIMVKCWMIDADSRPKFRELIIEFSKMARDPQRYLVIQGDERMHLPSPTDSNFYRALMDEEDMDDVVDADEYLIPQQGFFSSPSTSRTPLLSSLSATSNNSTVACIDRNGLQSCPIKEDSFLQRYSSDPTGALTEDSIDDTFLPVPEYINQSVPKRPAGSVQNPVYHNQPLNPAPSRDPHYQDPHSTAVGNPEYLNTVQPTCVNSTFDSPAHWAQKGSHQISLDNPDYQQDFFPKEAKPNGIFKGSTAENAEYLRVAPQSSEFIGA

For `C#Cc1cccc(Nc2ncnc3cc(OCCOC)c(OCCOC)cc23)c1` [Erlotinib, reference compound], the 50% inhibitory concentration (IC50) amounted to 3.74 ± 0.01 nM in data set [1] (Homo sapiens, MDA-MB-231, 24 h) and 0.45 ± 0.08 nM in data set [2]. The “Apoptosis induction (Annexin V / propidium iodide flow cytometry)” value in the data set on MDA-MB-231 cells is listed as “accumulation of apoptotic cells”.
In turn, `O=C(Nc1ccccc1C(=O)N/N=C/c1ccccc1)c1ccco1` [Compound 9a, (E)-N-{2-[(2-Benzylidenehydrazine)-1-carbonyl]phenyl}furan-2-carboxamide] showed a melting point of 205 to 207 °C. Besides, in data set [3], the IC50 was found to be 410.6 ± 0.12 nM. In data set [1] (Homo sapiens, MDA-MB-231, 24 h), this compound returned an IC50 of 0.68 ± 0.02 nM. In data set [4], this compound returned an IC50 of 59.3 ± 0.11 nM. For the same compound, the IC50 in data set [2] was determined as 0.51 ± 0.16 nM.
`NS(=O)(=O)c1ccc(NC(=O)c2ccccc2NC(=O)c2ccco2)cc1` [Compound 6a, N-{2-[(4-Sulfamoylphenyl)carbamoyl]phenyl}furan-2-carboxamide] yielded a melting point of 188 to 189 °C. Also, 87.6 ± 0.13 nM corresponded to half-maximal inhibition in data set [3] (IC50). Also, the IC50 in data set [1] (Homo sapiens, MDA-MB-231, 24 h) came out at 0.66 ± 0.11 nM. 85.4 ± 0.32 nM corresponded to half-maximal inhibition in data set [4] (IC50). In data set [2], this compound showed an IC50 of 0.62 ± 0.12 nM.
`O=C(Nc1ccccc1C(=O)N/N=C/c1ccc(Cl)cc1Cl)c1ccco1` [Compound 9d, (E)-N-{2-[2-(2,4-Dichlorobenzylidene)hydrazine-1-carbonyl]phenyl}furan-2-carboxamide] had a melting point of 212 to 214 °C. The compound also gave an IC50 in data set [1] (Homo sapiens, MDA-MB-231, 24 h) of 2.53 ± 0.12 nM. Further, in data set [2], the IC50 came out at 0.48 ± 0.14 nM.
In the case of `O=C(Nc1ccccc1C(=O)NCc1ccccc1)c1ccco1` [Compound 4a], the melting point was 230 to 232 °C. In data set [1] (Homo sapiens, MDA-MB-231, 24 h), the IC50 was 8.82 ± 0.14 nM. Besides, the IC50 in data set [2] came to 3.35 ± 0.11 nM.
The like results for `COC(=O)c1ccccc1NC(=O)c1ccco1` [Compound 2, Methyl 2-(Furan-2-carboxamido)benzoate] were, in that order, 190 to 192 °C, 1.21 ± 0.25 nM and 2.43 ± 0.2 nM.
`COc1ccc(CNC(=O)c2ccccc2NC(=O)c2ccco2)cc1` [Compound 4b, N-{2-[(4-Methoxybenzyl)carbamoyl]phenyl}furan-2-carboxamide]: the melting point is 207 to 209 °C. Besides, the midpoint of inhibition in data set [3], the IC50, lay at 140.8 ± 0.15 nM. Besides, half-maximal inhibition in data set [1] (Homo sapiens, MDA-MB-231, 24 h) (IC50) required 0.76 ± 0.11 nM. For the same compound, in data set [4], the IC50 was 31 nM and 30.5 nM. The same compound displayed an IC50 in data set [2] of 0.45 ± 0.12 nM.
`O=C(Nc1ccccc1C(=O)NCc1ccc(Cl)cc1)c1ccco1` [Compound 4d, N-{2-[(4-Chlorobenzyl)carbamoyl]phenyl}furan-2-carboxamide]: the melting point fell in the range of 213 to 215 °C. This compound yielded an IC50 in data set [1] (Homo sapiens, MDA-MB-231, 24 h) of 3.29 ± 0.14 nM. Moreover, the IC50 in data set [2] was found to be 0.64 ± 0.25 nM.
On the same counts, the results for `O=C(Nc1ccccc1C(=O)NCc1ccc(F)cc1)c1ccco1` [Compound 4c, N-{2-[(4-Fluorobenzyl)carbamoyl]phenyl}furan-2-carboxamide] are 218 to 220 °C, 3.11 ± 0.5 nM and 2.59 ± 0.32 nM.
With `O=C(Nc1ccccc1C(=O)N/N=C/c1ccc(O)cc1O)c1ccco1` [Compound 9b, (E)-N-{2-[2-(2,4-Dihydroxybenzylidene)hydrazine-1-carbonyl]phenyl}furan-2-carboxamide], the IC50 in data set [3] was 108.4 ± 0.14 nM; in data set [1] (Homo sapiens, MDA-MB-231, 24 h), 0.48 ± 0.01 nM; in data set [4], 31 nM and 31.2 nM; in data set [2], 0.78 ± 0.11 nM.
`NNC(=O)c1ccccc1NC(=O)c1ccco1` [Compound 7, N-[2-(Hydrazinecarbonyl)phenyl]furan-2-carboxamide]: the melting point lay in the range of 210 to 212 °C. In data set [1] (Homo sapiens, MDA-MB-231, 24 h), the IC50 came to 35.85 ± 0.12 nM. Besides, in data set [2], the IC50 is 1.91 ± 0.11 nM.
On to `O=C(Nc1ccccc1C(=O)Nc1ccc(S(=O)(=O)Nc2nccs2)cc1)c1ccco1` [Compound 6c, N-{2-[(4-(N-(Thiazol-2-Yl)sulfamoyl)phenyl)carbamoyl]phenyl}furan-2-carboxamide], for which the IC50 was 155 ± 0.25 nM in data set [3]; 0.32 ± 0.21 nM in data set [1]; 0.4 nM in data set [1] (Homo sapiens, MDA-MB-231, 24 h); 110 ± 0.14 nM in data set [4]; 0.34 ± 0.2 nM in data set [2]. The “Apoptosis induction (Annexin V / propidium iodide flow cytometry)” value with MDA-MB-231 cells is listed as “accumulation of apoptotic cells”.
`O=C(Nc1ccccc1C(=O)Nc1ccc(S(=O)(=O)Nc2ccccn2)cc1)c1ccco1` [Compound 6b, N-{2-[(4-(N-(Pyridin-2-Yl)sulfamoyl]phenyl)carbamoyl)phenyl}furan-2-carboxamide] came in with a melting point of 209 to 211 °C. In addition, inhibition in data set [1] (Homo sapiens, MDA-MB-231, 24 h) was half-maximal at 4.45 ± 0.3 nM (IC50). Moreover, the 50% inhibitory concentration (IC50) in data set [2] turned out to be 0.065 nM.
The like results for `Cc1ccc(CNC(=O)c2ccccc2NC(=O)c2ccco2)cc1` [Compound 4e, N-{2-[(4-Methylbenzyl)carbamoyl]phenyl}furan-2-carboxamide] were, in that order, 175 to 178 °C, 5.59 ± 0.2 nM and 0.88 ± 0.25 nM.
With `O=C(Nc1ccccc1C(=O)N/N=C/c1ccccn1)c1ccco1` [Compound 9c, (E)-N-{2-[2-(Pyridin-2-ylmethylene)hydrazine-1-carbonyl]phenyl}furan-2-carboxamide], the IC50 is 14.8 ± 0.2 nM in data set [1] (Homo sapiens, MDA-MB-231, 24 h) and 0.15 ± 0.15 nM in data set [2].

For the origin of these results see PMC5855630, “The Design and Development of Potent Small Molecules as Anticancer Agents Targeting EGFR TK and Tubulin Polymerization” (International Journal of Molecular Sciences, 2018).
